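Growth conditions: 96-well plates. Treatment: test compound, 48 hours, 5 concentrations. Analysis: linear interpolation between bracketing concentrations; unreached endpoints set to highest concentration. GI50 is the concentration that inhibits growth by half.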 Activity calls are given as the source filed them. Cut-off read from the data, not from the text of the source: active = GI50 up to about 1.1 µM and inactive = higher. Where a SMILES comes first, the peptide text is derived from it. [ ]: non-standard residue; d: D form. The star is where a group is joined. ξ: configuration not given here. NMeF = CN[CH](Cc1ccccc1)C(=O)O; ξNMe2Val = CC(C)C(C(=O)*)N(C)C; NMeV = CN[CH](C(=O)O)C(C)C; OtBu = CC(C)(C)O*

Assay in all cases: NCI tumour cell line growth inhibition, 48 h
Experiment [1] concerns OVCAR-4.
The test system of experiment [2] is A549.
Experiment [3] has as its system COLO 205.
Experiment [4] has as its system SW-620.
Experiment [5] concerns IGROV-1.
Experiment [6] has as its system HT-29.
Experiment [7] has as its system CAKI-1.
Experiment [8] has as its system SF-268.
Experiment [9] has as its system K562.
The test system of experiment [10] is UACC-257.
The subject of experiment [11] is KM12.
For experiment [12], the system named is MOLT-4.
Experiment [13] deals with SR.
Experiment [14] has as its system HCT-116.
Experiment [15] relates to HCT-15.
The subject of experiment [16] is NCI-H226.

As to `COc1cc2cnc3c4ccccc4ccc3c2cc1OC`, the GI50 in experiment [1], in experiment [2], in [3], in experiment [4], in experiment [5] and in [6] was > 100 µM (inactive) in each case. For the same molecule, the GI50 in experiment [7], in experiment [8], in experiment [9], in experiment [10], in experiment [11] and in experiment [12] was > 100 µM (inactive) throughout.

Take `NC(=O)N/N=C(\CC1OC(=O)c2ccccc21)c1ccc([N+](=O)[O-])cc1` (centres undefined): the GI50 was 32.7 µM (inactive) in [13]; 39.5 µM (inactive) in experiment [1]; 38.7 µM (inactive) in experiment [2]; 46.8 µM (inactive) in experiment [3]; 35.7 µM (inactive) in experiment [4]; 23.7 µM (inactive) in [5]. Besides, the GI50 in experiment [6] is 40.6 µM (inactive); in experiment [7], 23.6 µM (inactive); in experiment [14] it was 28.7 µM (inactive); in experiment [9], > 10 µM (inactive); in experiment [15] it was 24.5 µM; in experiment [10], 67.3 µM (inactive). The GI50 in experiment [11] is 32.5 µM (inactive); in [12], 27.7 µM (inactive).

Regarding `O=c1cc(-c2ccccc2)oc2cc(OCCCCCCCCCCOc3ccc4c(=O)cc(-c5ccccc5)oc4c3)ccc12`, the GI50 in [13], in [1], in experiment [2], in experiment [3], in experiment [4] and in [5] was > 100 µM (inactive) in each case. Besides, the GI50 in experiment [6] was > 100 µM (inactive); in experiment [7] it was > 100 µM (inactive); in experiment [14], > 100 µM (inactive); in [9] it was > 100 µM (inactive); in [15], above 100 µM; in experiment [10] it was > 100 µM (inactive). Moreover, the GI50 in [11] and in experiment [12] was > 100 µM (inactive) each time.

Regarding `CCn1c(=O)c2ccccc2n2c(=O)c3cc4ccccc4cc3nc12`, the GI50 in experiment [2] is > 100 µM (inactive); in experiment [3] it was > 100 µM (inactive); in experiment [4], > 100 µM (inactive); in [5], > 100 µM (inactive); in [6], 64.4 µM (inactive); in experiment [7] it was > 100 µM (inactive). Moreover, the GI50 in experiment [16] is > 100 µM (inactive); in [8] it was 65.6 µM (inactive); in [14], > 100 µM (inactive); in experiment [9], > 100 µM (inactive); in [15], above 100 µM; in experiment [10] it was > 100 µM (inactive). The GI50 in experiment [11] and in experiment [12] was > 100 µM (inactive) throughout.

As for `CC(C)C(C(=O)N(C)C(Cc1ccccc1)C(=O)N(C)C(C(=O)N(C)C(C(=O)N1CCCC1C(=O)OC(C)(C)C)C(C)C)C(C)C)N(C)C` (centres undefined) (ξNMe2Val-[NMeF][NMeV][NMeV]P-OtBu; configuration not given here), the GI50 is 25.4 µM (inactive) in experiment [13]; 71.1 µM (inactive) in experiment [2]; 35.2 µM (inactive) in experiment [3]; 43 µM (inactive) in [4]; 90.6 µM (inactive) in experiment [5]; 40.4 µM (inactive) in [6]. Moreover, the GI50 was > 100 µM (inactive) in experiment [16]; 63 µM (inactive) in experiment [8]; 33.6 µM (inactive) in [14]; 31.6 µM (inactive) in [9]; 51.6 µM in [15]; 32.8 µM (inactive) in experiment [10]. Moreover, the figures for the GI50 in [11] and in [12] were 40.6 µM (inactive) and 13.9 µM (inactive), respectively.

Take `CCOC(=O)C1(C(=O)OCC)CC=C(C)CC12C(=O)Nc1ccccc12` (centres undefined): the GI50 in [1], in experiment [2], in experiment [3], in experiment [4], in [5] and in experiment [6] was > 100 µM (inactive) in each case. Further, the GI50 in experiment [7] was > 100 µM (inactive); in [16], > 100 µM (inactive); in [8], > 100 µM (inactive); in experiment [14], > 100 µM (inactive); in experiment [9] it was > 100 µM (inactive); in [15], above 100 µM. Also, the GI50 in experiment [11] and in experiment [12] was > 100 µM (inactive) in each case.

Consider `O=c1c2ccccc2nc(-c2ccccc2)n1NCC1(O)OCC(O)C(O)C1O` (centres undefined), for which the GI50 in [1] was > 100 µM (inactive); in [2] it was 81.3 µM (inactive); in experiment [3], > 100 µM (inactive); in experiment [4], 87.5 µM (inactive); in experiment [5] it was > 100 µM (inactive); in [6], > 100 µM (inactive). In addition, the GI50 in experiment [7] was 47.3 µM (inactive); in experiment [16], > 100 µM (inactive); in [8], > 100 µM (inactive); in [14], > 100 µM (inactive); in experiment [9], > 100 µM (inactive); in experiment [15], above 100 µM. Moreover, the GI50 was > 100 µM (inactive) in [10], > 100 µM (inactive) in experiment [11] and 14 µM (inactive) in [12].

On to `CC(=O)NC1=C(NCC(C)C)C(=O)c2ccccc2C1=O`, for which the GI50 in experiment [1] is 69.2 µM (inactive); in experiment [2], 54.3 µM (inactive); in [3] it was > 100 µM (inactive); in experiment [4], 16.5 µM (inactive); in [5], 43.5 µM (inactive); in experiment [6], 41 µM (inactive). Besides, the GI50 in experiment [7] is 16.7 µM (inactive); in experiment [16], 16 µM (inactive); in experiment [8] it was 20.5 µM (inactive); in [14], 20.3 µM (inactive); in experiment [9], 15.3 µM (inactive); in [15], 17.7 µM. Moreover, the GI50 in [10] was 18.8 µM (inactive); in experiment [11], 42.9 µM (inactive); in [12] it was 29.4 µM (inactive).

In the case of `C[C@]12CC(C=O)C(=O)C(O)=C1CC[C@@H]1C2CC[C@@]2(C)C1CC[C@]2(C)O` (some centres undefined), the GI50 in experiment [1] was 13.2 µM (inactive); in experiment [2], 57.4 µM (inactive); in experiment [3], 18.8 µM (inactive); in experiment [4], 34.3 µM (inactive); in experiment [5], 19.2 µM (inactive); in experiment [6] it was 4.66 µM (inactive). Further, the GI50 in experiment [16] was 18.6 µM (inactive); in experiment [8], 25.4 µM (inactive); in [14], 20 µM (inactive); in experiment [9] it was 25.9 µM (inactive); in experiment [15], 23 µM; in experiment [10], 24.2 µM (inactive). In addition, the GI50 is 25.5 µM (inactive) in [11] and 22.3 µM (inactive) in [12].

In the case of `CC(C)N1CCC2(CC1)NNc1ncccc1-n1cccc12`, the GI50 in experiment [1], in [2], in experiment [3], in [4], in experiment [6] and in experiment [7] was > 100 µM (inactive) in each case. For the same molecule, the GI50 in experiment [16] is > 100 µM (inactive); in [8], > 100 µM (inactive); in experiment [14], > 100 µM (inactive); in [9] it was > 100 µM (inactive); in experiment [15], above 10 µM; in [10], > 100 µM (inactive). Moreover, the GI50 in [11] and in [12] was > 100 µM (inactive) each time.

As to `O=C1C2[C@@H](C(=O)N1c1ccc(Br)cc1)C13C(=CC2([N+](=O)[O-])[C@@H]2C(=O)N(c4ccc(Br)cc4)C(=O)[C@@H]21)c1ccccc1N3c1ccccc1` (some centres undefined), the GI50 in experiment [13] was 83 µM (inactive); in [2], > 100 µM (inactive); in experiment [3], 25.8 µM (inactive); in [4] it was > 100 µM (inactive); in experiment [16] it was > 100 µM (inactive); in [8], 11.6 µM (inactive). In addition, the GI50 was > 100 µM (inactive) in [9]; above 100 µM in experiment [15]; > 100 µM (inactive) in experiment [10]; > 100 µM (inactive) in [11]; > 100 µM (inactive) in experiment [12].

Take `CC(C)(C)OC(=O)N1CC(C)(C)N2C(=O)C3(CCCO3)C12` (centres undefined): the GI50 in experiment [1] is > 100 µM (inactive); in [2] it was > 100 µM (inactive); in [3], > 100 µM (inactive); in experiment [4], 14.9 µM (inactive); in experiment [5] it was > 100 µM (inactive); in experiment [6] it was > 100 µM (inactive). Moreover, the GI50 in experiment [7] is > 100 µM (inactive); in [16], > 100 µM (inactive); in experiment [8] it was > 100 µM (inactive); in experiment [14], > 100 µM (inactive); in experiment [9], 58.9 µM (inactive); in experiment [15], above 100 µM. Besides, the GI50 in experiment [10], in [11] and in [12] was > 100 µM (inactive) each time.

For the molecule `COC(=O)C12C3C4C1C1C2C3C41I` (centres undefined), the GI50 in [1], in experiment [2], in experiment [3], in experiment [4], in experiment [5] and in experiment [6] was > 100 µM (inactive) throughout. Moreover, the GI50 is > 100 µM (inactive) in [7]; > 100 µM (inactive) in experiment [16]; > 100 µM (inactive) in experiment [8]; > 100 µM (inactive) in experiment [9]; above 100 µM in experiment [15]; > 100 µM (inactive) in experiment [10]. Also, the GI50 in experiment [12] is > 100 µM (inactive).

As to `NCCCSCC(=O)O`, the GI50 in [1], in experiment [2], in experiment [3], in experiment [4], in [5] and in [6] was > 100 µM (inactive) throughout. In addition, the GI50 in experiment [7] is > 100 µM (inactive); in experiment [16] it was > 100 µM (inactive); in experiment [8], > 100 µM (inactive); in experiment [14] it was > 100 µM (inactive); in experiment [9], > 100 µM (inactive); in experiment [15] it was above 100 µM. The GI50 in experiment [10], in experiment [11] and in [12] was > 100 µM (inactive) throughout.

The values are drawn from ChEMBL document CHEMBL1201862, “PubChem BioAssay data set” (2004).
